{
  "source": "patent US20200199530A1",
  "about": "“METHODS OF DIFFERENTIATING STEM CELL-DERIVED ECTODERMAL LINEAGE PRECURSORS” (MEMORIAL SLOAN-KETTERING CANCER CENTER, priority 2017, published 2020)",
  "molecules": {"B1": {"name": "BMP4: activator of BMP signaling (protein, UniProt P12644 293-408, looked up)", "Bone morphogenetic protein 4": "SPKHHSQRARKKNKNCRRHSLYVDFSDVGWNDWIVAPPGYQAFYCHGDCPFPLADHLNSTNHAIVQTLVNSVNSSIPKACCVPTELSAISMLYLDEYDKVVLKNYQEMVVEGCGCR"}},
  "assay_type_in_all_cases": "cell-based, human",
  "key": {"[1]": {"system": "H9 SIX1 H2B::GFP cells", "experiment": "LOPAC small-molecule screen for enhancers of placode fate and hit validation", "conditions": "for validation of primary hits: percentage of cells expressing SIX1: CP protocol, FIG. 6C, 13A/13B, 44A/44B; for expression of SIX1 relative to control differentiations (primary screen): LOPAC library, 1 μM and 10 μM, added day 3, read day 6", "method": "(§1) H9 SIX1 H2B::GFP cells were differentiated into lens placode as described earlier and plated on 96 well plates coated with Matrigel. On day 3 (day before SIX1 H2B::GFP can be detected in individual cells) the medium was additionally supplemented with compounds from the LOPAC library. Two different concentrations (1 μM and 10 μM) per compound were used. Medium was not changed until day 6 of differentiation. On day 6 of differentiation plates were washed once with PBS and cells were fixed with 4% PFA. To increase the signal intensity over background, the cells were stained using an antibody against GFP. After labeling with an appropriate Alexa488-conjugated secondary antibody and the nuclear counterstain DAPI, cells were analyzed using the Meta Express software (Meta-morph) by calculating the percent nuclear GFP signal over DAPI positive cells."}, "[2]": {"system": "hPSC-derived pituitary cells", "experiment": "Stimulation of hormone release in vitro (ELISA)", "conditions": "day 30 cells, CRF 1 μM, Somatocrinin 1 μg/ml, vs solvent control; for ACTH release: Stressin I 2 μM, Urocortin 500 nM, Ghrelin 1 μM", "method": "To stimulate hormone release in vitro, cells were differentiated in 24 well plates as described above. On day 30 of differentiation cells were washed once with PBS and 250 μl of fresh medium containing either the solvent or the stimulant were added to each well. After 12 h the supernatant was removed and centrifuged for 5 min at 2000 g to pellet debris. Supernatant was transferred into fresh reaction tubes, flash frozen and stored at −80° C. until ELISA measurements. Stimulants used were: CRF (Tocris, 1 μM), Stressin I (Tocris, 2 μM), Ghrelin (Tocris, 1 μM), Somatocrinin (Accurate Chemical, 1 μg/ml), Nafarelin (Tocris, 1 μM) and Urocortin (Tocris, 500 nM).\nHormone concentration in the supernatant of cells or in animal serum was analyzed using ELISA measurements. Hormone concentration in the cell culture supernatant was assessed using traditional single hormone ELISA Kits according to the manufactures manual. ACTH (Calbiotech, detects rat and human ACTH), hGH (R&D Systems, human specific), FSH (Calbiotech, FSH (lumELISA, human specific) and corticosterone (Abcam). Plates were read using an EnSpire Multimode plate reader (PerkinElmer). Hormone concentration in in vivo samples was analyzed using either traditional ELISA (for ACTH only, serum diluted 1:2) or species specific (human or rat) Milliplex multiplex ELISA using Luminex technology (Millipore). Magnetic bead-based sandwich immunoassay was performed according to the manufactures manual. 25 μl of undiluted serum samples in duplicate wells were analyzed by Luminex FlexMap 3D (Luminex Corp, Austin, Tex.). Cytokine concentrations were determined by Luminex Xponent 4.1 and EMD-Millipore Milliplex Analyst v5.1 using 5-p log analysis."}, "[3]": {"system": "hPSC differentiated towards CP (SIX1)", "experiment": "Phenanthroline in CP differentiation: marker expression and SIX1 positive cells", "conditions": "for SIX1 positive cells: CP protocol, FIG. 6E, Phenanthroline alone = absence of FGF2, control 18%", "method": "(§2) All differentiations starting from E8 were dissociated into single cells using EDTA and re-plated at high density in E8 with the ROCK inhibitor (Tocris). Cells were typically seeded at a density of 200,000 cells/cm^2 on Matrigel coated dishes. Switching from E8 to E6 triggered differentiations (i.e. d0). Neuroectoderm (NE) formation was generated by culturing the cells in E6 with 10 μM SB and 500 nM LDN until d12. Neural Crest (NC) was first treated with 10 μM SB, 600 nM CHIR and 1 ng/ml BMP4 from d0-d2. At d3, cells were maintained in 10 μM SB with 1.5 uM CHIR until d12. Lens placode was first treated with 10 μM SB and 5 ng/ml BMP4 from d0-d2. At d3, cells were maintained in 10 μM SB with 50 ng/ml FGF2 until d12. Trigeminal placode was first treated with 10 μM SB and 5 ng/ml BMP4 from d0-d2. At d2, 600 nm CHIR was added. At d3, cells were treated with 10 μM SB and 600 nM CHIR. From d4-d12, cells were treated with 10 μM SB. Finally, non-neural ectoderm (NNE) was treated with 10 μM SB, 10 μM SU5402 and 10 ng/ml BMP4 from d0-d1, and then treated with 10 μM SB and 5 ng/ml BMP4 from d2-d12.\nas §1"}, "[4]": {"system": "hPSCs", "experiment": "Tolerability of small molecules during E6-based differentiation", "conditions": "had to be re-titrated"}, "[5]": {"system": "hPSC (SIX1::H2B-GFP reporter)", "experiment": "Cranial placode induction in E6 media, SIX1 positive cells", "method": "as §2\nCranial Placode differentiation. Day 0 (0-24 hrs): Add E6 media containing 5 ng/ml BMP4+10 μM SB to cells.\nDay 1 (24-48 hrs): Change media with E6 media containing 5 ng/ml BMP4+10 μM SB to cells.\nDay 2 (48-72 hrs): Change media with E6 media containing 5 ng/ml BMP4+10 μM SB to cells. […]"}, "[6]": {"system": "hPSCs (TFAP2A expression)", "experiment": "BMP4 induction of TFAP2A and non-neural ectoderm in E6 media", "method": "as §2, with “Finally, non-neural ectoderm (NNE) was treated with 10 μM SB, 10 μM SU5402 and 10 ng/ml BMP4 from d0-d1, and then treated with 10 μM SB and 5 ng/ml BMP4 from d2-d12.” left out\nHuman embryonic (H9, H1, HUES8, HUES6 and MEL1) and induced pluripotent stem cells (BJ1, MRC5 and SeV6) were adapted in the E8 media for a minimum of 4 passages (˜2 weeks) and induced to differentiate into the four ectodermal lineages. Bulk differentiations were dissociated using Accutase for 30 min at 37° C. at day 10 of differentiation and seeded in 96 well imaging plates. Cells were fixed two days later using 4% paraformaldehyde and permeabilized using 0.5% Triton-X and maintained in 0.2% Tween all diluted with PBS. Cells were then stained using antibodies against various markers indicative of the ectodermal lineages. Plates were scanned and measurements recorded using an IN Cell Analyzer 6000 (GE) and quantified using the Columbus image analysis software (PerkinElmer). Experiments involving these cell lines were biologically replicated (n=4) and technically replicated (n=2 per biological replicate)."}, "[7]": {"system": "hPSC (SOX10::GFP reporter)", "experiment": "Neural crest induction in E6 media, SOX10 positive cells", "method": "as §2\nNeural Crest differentiation. Day 0 (0-24 hrs): Add E6 media containing 1 ng/ml BMP4+10 μM SB+600 nM CHIR to cells.\nDay 1 (24-48 hrs): Change media with E6 media containing 1 ng/ml BMP4+10 μM SB+600 nM CHIR to cells. […]"}, "[8]": {"conditions": "three-day pulse with SB431542 in E6"}},
  "note": "Entries after “also recorded” stand apart in the source; their conditions may differ. Ends that are not written are not given here.",
  "data": [
    {"molecule": "CN1CCC(c2c[nH]c3ccc(O)cc23)CC1", "note": "[BRL-5443]", "values": [
      {"measurement": "validation of primary hits: percentage of cells expressing SIX1", "setting": "[1]", "value": "increased the level of SIX1 expressing CP precursor cells"},
      {"measurement": "validation of primary hits: percentage of cells expressing SIX1", "setting": "[1]; listed as BRL-54443", "value": "did not produce a significant difference"},
      {"measurement": "expression of SIX1 relative to control differentiations (primary screen)", "setting": "[1]", "value": "increased expression of SIX1 above the levels observed in control differentiations"}
    ]},
    {"molecule": "Urocortin: stimulant of hormone release (Tocris, 500 nM) (DNPSLSIDLTFHLLRTLLELARTQSQRERAEQNRIIFDSV; ends and bridges not checked; UniProt P55089 83-122, looked up)", "values": [
      {"measurement": "ACTH release", "setting": "[2]", "value": "specifically induced"},
      {"measurement": "ACTH release", "setting": "[2]; listed as urocortin", "value": "induced release of ACTH"}
    ]},
    {"molecule": "Ghrelin: stimulant used (Tocris, 1 μM) (GSSFLSPEHQRVQQRKESKKPPAKLQPR; ends and bridges not checked; UniProt Q9UBU3 24-51, looked up)", "values": [
      {"measurement": "ACTH release", "setting": "[2]", "value": "did not trigger ACTH release and not"}
    ]},
    {"molecule": "Somatocrinin: stimulant of hormone release (Accurate Chemical, 1 μg/ml) (YADAIFTNSYRKVLGQLSARKLLQDIMSRQQGESNQERGARARL; ends and bridges not checked; UniProt P01286 32-75, looked up)", "values": [
      {"measurement": "ACTH release", "setting": "[2]", "value": "not"},
      {"measurement": "ACTH release", "setting": "[2]; listed as somatocrinin", "value": "did not trigger ACTH release"},
      {"measurement": "GH release", "setting": "[2]", "value": "induced"},
      {"measurement": "GH release", "setting": "[2]; listed as somatocrinin", "value": "triggered robust increase in GH release"}
    ]},
    {"molecule": "c1cnc2c(c1)ccc1cccnc12", "note": "[Phenanthroline]", "values": [
      {"measurement": "validation of primary hits: percentage of cells expressing SIX1", "setting": "[1]", "value": "confirmed to reliably enhance the percentage of cells expressing Six1; also recorded: confirmed to trigger a robust increase in the percentage of cells expressing SIX1; also recorded: large majority of cells"},
      {"measurement": "expression of SIX1 relative to control differentiations (primary screen)", "setting": "[1]", "value": "increased expression of SIX1 above the levels observed in control differentiations"},
      {"measurement": "SIX1 positive cells", "setting": "[3]", "value": 69, "unit": "%"},
      {"measurement": "fold increase of SIX1 positive cells versus control", "setting": "[3]; absence of FGF2, 69% versus 18%", "value": "~4", "unit": "fold"},
      {"measurement": "expression of other lineage markers (Sox10, T, MyoD, Sox17)", "setting": "[3]; differentiation towards CP, FIG. 6D", "value": "without inducing the expression of other lineage markers"}
    ]},
    {"molecule": "CRF: stimulant of hormone release (Tocris, 1 μM) (SEEPPISLDLTFHLLREVLEMARAEQLAQQAHSNRKLMEII; ends and bridges not checked; UniProt P06850 154-194, looked up)", "values": [
      {"measurement": "ACTH release", "setting": "[2]", "value": "induced release of ACTH; also recorded: specifically induced"},
      {"measurement": "GH release", "setting": "[2]", "value": "not"}
    ]},
    {"molecule": "Cc1c[nH]c(/C=C2\\C(=O)Nc3ccccc32)c1CCC(=O)O", "note": "[SU5402, 2-[(1,2-Dihydro-2-oxo-3H-indol-3-ylidene)methyl]-4-methyl-1H-pyrrole-3-pr-opanoic acid]", "values": [
      {"measurement": "cell killing at the original (KSR protocol) concentration", "setting": "[4]", "value": "effectively killed the cells"}
    ]},
    {"molecule": "FGF2: activator of FGF signaling", "values": [
      {"measurement": "SIX1 positive cells after addition of FGF agonist", "setting": "[5]; E6 with SB431542 and BMP pulse, FIG. 2G/38B", "value": "~50", "unit": "%"},
      {"measurement": "SIX1 positive cells", "setting": "[3]", "value": 34, "unit": "%"}
    ]},
    {"molecule": "B1", "values": [
      {"measurement": "BMP4 concentration optimal for CP induction (dose-response studies)", "setting": "[5]; [8]", "value": "around 5 ng/ml"},
      {"measurement": "NNE marker phenotype at high BMP4 concentration", "setting": "[6]; 20 ng/ml", "value": "cells become TFAP2A+ and lack expression of SOX10 and SIX1; also recorded: derivation of TFAP2A+, PAX6−, SIX1−, and SOX10− NNE is achieved"},
      {"measurement": "percentages of TFAP2A+ cells", "setting": "[6]; with addition of BMP4, range across ESC/iPSC lines, 0%-5% without BMP4", "value": "56%-95%"},
      {"measurement": "TFAP2A expression", "setting": "[6]; within 3 days of treatment, dose-dependent", "value": "rapidly upregulated"},
      {"measurement": "SOX10 positive NC population", "setting": "[7]; short pulse 1 ng/ml in combination with WNT activation", "value": "nearly homogenous SOX10 positive NC population; also recorded: nearly homogeneous SOX10+ NC population"},
      {"measurement": "BMP4 concentration giving strong NC induction (dose-response studies)", "setting": "[7]; [8]", "value": "around 1 ng/ml"}
    ]}
  ]
}
